Test results reported in patent US20040038910A1, “Remedy for diabetes mellitus” (priority 2000, published 2004).

How the values were obtained:
[1] = tested on: model mice for non-insulin-depending diabetes mellitus (KK-A^y); experiment: Blood-sugar level of KK-A^y diabetic model mice fed test feed for 30 days; type: in vivo; conditions: group D, feed D (2.5% L-arabinose, no sucrose) ad libitum, FIG. 2
Description: Twenty model mice for non-insulin-depending diabetes mellitus showing hyperglycemia (260˜270 mg/liter) (KK-A^y, male, 8 weeks age, Nippon Clair) were preliminarily raised for one week, divided into two groups (group A and group B) and used for the test. Each of the mice was placed in a plastic cage separately and raised by keeping at 23±1° C. under a 12-hour bright-and-dark cycle (bright environment from 7 a.m. to 7 p.m. and dark environment from 7 p.m. to 7 a.m. of the next day) where feed and water were freely taken by the mice. Blood-sugar level (concentration of glucose in blood) was measured by a glucose oxidase method after collecting the blood from the venous plexus of the eyeground at 9 a.m.
The feed A mentioned in Table 1 (a feed containing α-corn starch, sucrose, and cellulose as carbohydrate sources but containing no L-arabinose) was given to the mice of group A while the feed B mentioned in Table 1 (a feed containing α-com starch, sucrose, and cellulose as carbohydrate sources and also containing L-arabinose) was given to the mice of group B and the study was carried out for 30 days. […]

mice = conditions: 30 to 120 minutes after loading with sucrose; cited from earlier work
sucrase = sucrase (Homo sapiens, UniProt P14410); conditions: sucrose-decomposing enzyme in the small intestine; cited from earlier work
Sequence of sucrase (P14410 whole entry, species assumed): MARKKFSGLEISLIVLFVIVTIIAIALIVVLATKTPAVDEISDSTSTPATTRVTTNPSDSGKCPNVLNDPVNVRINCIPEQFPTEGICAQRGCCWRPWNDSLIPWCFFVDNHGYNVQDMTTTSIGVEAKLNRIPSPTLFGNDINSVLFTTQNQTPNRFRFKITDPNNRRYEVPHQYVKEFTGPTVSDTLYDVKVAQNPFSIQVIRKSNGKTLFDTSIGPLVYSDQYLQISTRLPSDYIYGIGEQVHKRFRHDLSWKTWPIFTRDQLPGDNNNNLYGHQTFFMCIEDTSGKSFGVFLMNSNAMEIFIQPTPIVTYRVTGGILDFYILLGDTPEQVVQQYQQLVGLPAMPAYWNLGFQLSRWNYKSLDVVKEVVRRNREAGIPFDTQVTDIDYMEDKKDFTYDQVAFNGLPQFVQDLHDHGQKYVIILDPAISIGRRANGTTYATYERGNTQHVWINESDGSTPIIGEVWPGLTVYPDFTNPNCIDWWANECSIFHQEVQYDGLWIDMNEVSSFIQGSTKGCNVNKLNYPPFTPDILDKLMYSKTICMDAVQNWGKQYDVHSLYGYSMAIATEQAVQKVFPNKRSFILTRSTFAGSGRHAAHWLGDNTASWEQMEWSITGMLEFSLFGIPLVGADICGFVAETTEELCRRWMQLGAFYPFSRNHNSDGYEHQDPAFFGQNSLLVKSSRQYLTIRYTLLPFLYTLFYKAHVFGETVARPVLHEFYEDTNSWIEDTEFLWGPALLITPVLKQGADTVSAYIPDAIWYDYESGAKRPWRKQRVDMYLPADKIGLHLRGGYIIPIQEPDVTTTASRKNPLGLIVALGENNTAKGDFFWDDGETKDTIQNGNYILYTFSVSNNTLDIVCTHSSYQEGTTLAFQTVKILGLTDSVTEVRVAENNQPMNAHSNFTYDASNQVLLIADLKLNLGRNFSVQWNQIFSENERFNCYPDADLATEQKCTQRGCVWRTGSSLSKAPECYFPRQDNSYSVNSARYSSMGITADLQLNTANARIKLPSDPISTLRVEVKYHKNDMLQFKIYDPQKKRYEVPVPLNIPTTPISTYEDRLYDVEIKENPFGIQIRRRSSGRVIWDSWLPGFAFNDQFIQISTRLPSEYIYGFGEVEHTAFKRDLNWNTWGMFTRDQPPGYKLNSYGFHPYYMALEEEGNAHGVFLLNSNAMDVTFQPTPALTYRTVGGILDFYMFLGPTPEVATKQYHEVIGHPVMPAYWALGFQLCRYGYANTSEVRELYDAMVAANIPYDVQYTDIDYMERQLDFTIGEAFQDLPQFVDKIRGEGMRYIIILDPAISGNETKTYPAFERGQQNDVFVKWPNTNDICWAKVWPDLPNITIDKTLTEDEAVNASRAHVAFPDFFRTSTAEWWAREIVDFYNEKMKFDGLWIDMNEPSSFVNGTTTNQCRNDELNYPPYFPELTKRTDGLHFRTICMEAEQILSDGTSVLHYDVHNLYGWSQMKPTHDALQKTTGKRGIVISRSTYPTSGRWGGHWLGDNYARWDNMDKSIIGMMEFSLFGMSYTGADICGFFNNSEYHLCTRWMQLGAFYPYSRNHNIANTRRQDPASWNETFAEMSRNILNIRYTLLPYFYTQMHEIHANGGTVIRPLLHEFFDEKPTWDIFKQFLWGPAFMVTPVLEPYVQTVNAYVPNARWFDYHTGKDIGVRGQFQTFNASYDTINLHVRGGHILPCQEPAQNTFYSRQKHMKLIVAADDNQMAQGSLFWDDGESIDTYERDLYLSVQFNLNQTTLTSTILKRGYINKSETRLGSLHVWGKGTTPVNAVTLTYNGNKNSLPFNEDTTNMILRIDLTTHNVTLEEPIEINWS

O=C[C@H](O)[C@@H](O)[C@@H](O)CO [L-arabinose]
change in blood-sugar level, L-arabinose without sucrose [1]: no decrease in blood-sugar level takes place | rise of blood-sugar level after loading with sucrose (mice): suppressing the rise of blood-sugar level | action on sucrase (sucrase): inhibition of sucrase
